From patent publication US20060111284A1, “Method for treating cancer” (priority 2002, published 2006)

Assays:
cells = experiment: Chemosensitizing by redox clamping agent co-administered with anti-cancer agent (FIG. 2); format: cell-based
Description: The present invention further provides a method of reducing the effective dose of an anti-cancer agent necessary to be effective against cancer comprising administering a redox clamping agent in conjunction with an anti-cancer agent. It is preferred that the redox clamping agent is Mesna or DMSA. Redox clamping agents have the ability to maintain cells in a selected redox state. […] Redox clamping agents are useful in enhancing the therapeutic activity of chemotherapeutic agents such as butyrate that are dependent upon the redox state of the cell. Redox clamping agents are further useful in controlling hyperproliferation of cells and conditions associated with abnormal fluctuations in the redox state of cells. In one aspect, this invention provides a method of treating cancerous tumors comprising administering an effective dose of an anti-cancer agent in conjunction with a redox clamping agent, wherein the redox clamping agent acts as a chemoenhancer or a chemosensitizer. […] The administration of Mesna in conjunction with an anti-cancer agent may be as separate compounds or in a composition formulated and titrated to a dose and in a concentration that would achieve the optimal therapeutic dose of the anti-cancer agent providing a higher tumor cell kill with a lower dose of the anti-cancer agent than the typical therapeutic dose administered to a patient. […]

H4 Rat Hepatoma cells = experiment: Hydrogen peroxide stress in H4 Rat Hepatoma cells, antioxidant levels; format: cell-based; details: 100 uM hydrogen peroxide for two hours, medium replaced, determined after 24 hours
Protocol: To further exemplify the redox clamping properties of Mesna, stress was induced in H4 Rat Hepatoma cells by treatment with 100 uM hydrogen peroxide for two hours and then the medium was removed and replaced with an anti-cancer agent. The cellular viability, as well as glutathione and metallothionein levels were determined after 24 hours in culture. […] The inhibition of stress induced upswing in antioxidant levels is characteristic of redox clamping agents.
(§1) In all of the experiments associated with the investigation of Mesna as a redox clamping agent, as a stand-alone anticancer agent as well as a chemosensitizer, the cell culture medium used was Swim's S-77 medium containing 12 uM cystine, instead of conventional levels of this amino acid (i.e., 50 uM). All other components of the medium were maintained at conventional concentrations. […] The ability of cystine to supply cells with cysteine, which then function as a precursor amino acid for glutathione synthesis, is thought to be responsible for the abnormally high basal levels of glutathione in cultured tumor cell lines.

human tumor cell lines = experiment: Growth inhibition of human tumor cell lines in culture; format: cell-based
Description: The present invention provides a method of treating lymphoma, ovarian cancer, colorectal cancer, or gastric cancer comprising administering an effective amount of Mesna to a patient with lymphoma, ovarian cancer, colorectal cancer or gastric cancer. Mesna inhibits the growth of several human tumor cell lines in culture, and there are no strict relationships between the histopathological origin of the cell lines and the sensitivity of the cell lines to Mesna. […] It is further preferred that the patient be administered Mesna for a seven to ten day period. The doses may be cycled. The actual dose will be dependent on the size, type and location of the tumor as well as the overall status of the patient. It is preferred that high concentrations of Mesna be administered intravenously to achieve clamping initially, with further administration of oral doses to maintain the clamped state.
Cancer cell lines were growth inhibited when Mesna was administered on several consecutive days. Mesna has shown good activity in preventing the urotoxicity of oxazaphosphorine compound.
as §1

[1] = within a few minutes after administration; cited from earlier work
human LNCaP cells = experiment: Two-step arsenic then Mesna treatment, apoptosis and glutathione in LNCaP cells; format: cell-based
Protocol: Human LNCaP cells, treated with 100 uM arsenic for 2 hours then washed and re-fed with normal medium, develop an elevation in cellular glutathione levels over a 24-hour period. Since exogenous antioxidants are known to be potent inhibitors of apoptotic mechanism, it is believed that internally-produced antioxidants such as glutathione function in a similar manner. […] Although Mesna increases apoptosis alone, the low concentrations of Mesna utilized in this two-step treatment protocol increased apoptosis minimally i.e., to 11 percent from a background of 3 to 5 percent in untreated cells.
as §1

[2] = even in very high dose, 1000 mg/kg; cited from earlier work
[3] = system: metastatic and/or relapsed tumors refractory to conventional therapy; experiment: Clinical study of oral Mesna as single agent in refractory cancer patients; format: in vivo, human
Protocol: From December 1996 to March 1998 a study was performed on 14 ambulatory patients with metastatic and/or relapsed tumors refractory to conventional therapy. Eligibility criteria included histologically-confirmed advanced cancer, patients age was greater than 18 years, with a life expectancy no less than two months. The patients had not undergone major surgery within 2 weeks, or radiotherapy and/or chemotherapy within one month of the study. […] Exclusion criteria included active uncontrolled infection, pregnancy, lactation and any other co-existing medical problems severe enough to prevent full compliance with the study. Objectively measurable disease in the patients was required. All patients gave informed written consent before treatment. 600 mg/m^2 of Mesna was given by oral route four times a day, masked in orange juice for 10 consecutive days. Cycles were repeated every 15 days. No simultaneous chemotherapy and or radiotherapy and no other supportive care was given. The main objective of the study was to determine the anti-tumoral activity and toxicity of Mesna for heavily and or refractory pretreated cancer patients. […] The patients were all previously treated with between two and four different chemotherapy regimens. Mesna was administered as a single agent to all of the patients in the study. The toxic effects of Mesna and number of nodes were assessed during the first cycle of Mesna administration. […] For colorectal cancer a greater than 50% reduction of nodular lesions metastasized to liver was registered, during the second schedule of therapy. For gastric cancer a greater than 50% reduction of a subcutaneous nodule was measured during the second course of Mesna treatment.

[4] = 100 uM arsenic 2 hours, washed, then medium containing 100 uM Mesna

With `CCCC(=O)O` [Butyrate] the “concentration of butyrate that induces apoptosis” value (cells; butyrate alone) was “greater than 3 mM” and the “concentration of butyrate giving an effective kill” value (cells; in the presence of a redox clamping agent) was no less than 0.5 mM.
For `O=C(O)[C@@H](S)[C@@H](S)C(=O)O` [DMSA], the “stress-induced upswings in antioxidant levels (glutathione, metallothionein)” value (H4 Rat Hepatoma cells) was “oppose stress-induced upswings in antioxidant levels”.
In the case of `O=S(=O)([O-])CCSSCCS(=O)(=O)[O-].[Na+].[Na+]` [Dimesna, Disodium-2,2′-dithiobisethane sulfonate], the “interference with the growth inhibitory activity of Mesna” value (human tumor cell lines) is reported as “did not interfere”.
For `O=S(=O)([O-])CCS.[Na+]` [Mesna, Sodium-2-mercaptoethane sulphonate], the “fraction of administered dose transformed into Mesna disulphide” value [1] is given as “more than 90%”, the “elevation in glutathione levels” value (human LNCaP cells; [4]) is given as “dramatically diminished” and the “fraction of apoptotic cells compared to arsenic alone” value (human LNCaP cells; [4]) is given as “increased more than two-fold”. The apoptosis (human LNCaP cells; Mesna alone at the low concentration of the two-step protocol, background 3 to 5 percent in untreated cells) was 11%, the “stress-induced upswings in antioxidant levels (glutathione, metallothionein)” value (H4 Rat Hepatoma cells) was “oppose stress-induced upswings in antioxidant levels” and the “pharmacological and toxicological character” value [2] was “relatively inert”. The “reduction of a subcutaneous nodule, gastric cancer” value ([3]; 600 mg/m^2 oral four times a day, 10 days, second course) was “greater than 50%”, the “reduction of nodular lesions metastasized to liver, colorectal cancer” value ([3]; 600 mg/m^2 oral four times a day, 10 days, second schedule of therapy) was “greater than 50%” and the objective response ([3]; lung cancer, soft tissue sarcoma, skin metastases of unknown origin, bladder cancer, melanoma, cancer of the cervix) was “No objective responses”. For the same molecule, the “clinical response, ovarian cancer” value ([3]; two patients, 600 mg/m^2 oral four times a day, 10 days, second and third course) was “reduced ascites and pain”, the “incorporation of 3H-thymidine, proline and uridine” value (human tumor cell lines) was “inhibited” and the “growth of human tumor cell lines in culture” value (human tumor cell lines; lymphoma, ovarian, colorectal, gastric cancer lines, administered on several consecutive days) was “inhibits growth”.
For `[AsH3]` [arsenic], the “apoptosis of the cells” value (human LNCaP cells; 100 uM arsenic for 2 hours, washed, re-fed with normal medium) was 28%.
